Test results published in ChEMBL document CHEMBL1201862, “PubChem BioAssay data set” (2004).
Calls of active or inactive are those of the source.

Tests used:
Melanocortin receptor 4 = Melanocortin receptor 4 (Homo sapiens, UniProt P32245); experiment: MC4R antagonist potency on cAMP, dose response, cell-based, TR-FRET, biased antagonists (AID 602298); assay type: functional;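 also: antagonist potency against agonist-stimulated cAMP production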
[1] = nonselective inhibitors of cellular cAMP signaling, dose response, counter-screen for MC4R biased antagonist project, cell-based, TR-FRET cAMP detection (AID 602305); assay type: functional;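 also: U2OS cells stimulated with forskolin near its EC80 as the cAMP inducer; potency is for inhibition of forskolin-stimulated cAMP signaling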
[2] = cytotoxicity in HEK-293T cells, dose response, cytotoxicity control for BCR NF-kB inhibitor project, luminescence, B-cell screen hits (AID 489021); assay type: functional, cell-based;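 also: HEK-293T cells carrying an NF-kB luciferase reporter; cells exposed to compound for about 14 hours before viability readout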
[3] = target: DNA dC->dU-editing enzyme APOBEC-3G (Homo sapiens, UniProt Q9HC16); experiment: APOBEC3G deaminase inhibitors, SAR follow-up, biochemical, fluorescence, single-stranded DNA substrate (AID 602136); assay type: functional; details: read-out: IC50_Mean
[4] = target: DNA dC->dU-editing enzyme APOBEC-3A (Homo sapiens, UniProt P31941); experiment: SAR analysis of small molecule inhibitors of APOBEC3A DNA Deaminase via a fluorescence-based single-stranded DNA deaminase assay.; assay type: functional; details: read-out: IC50_Mean
[5] = target: Tyrosine-protein kinase ABL1 (Homo sapiens, UniProt P00519); assay type: functional
[6] = target: Fibroblast growth factor receptor 3 (Homo sapiens, UniProt P22607); assay type: functional
[7] = target: Tyrosine-protein kinase SYK (Homo sapiens, UniProt P43405); assay type: functional
[8] = target: Leucine-rich repeat serine/threonine-protein kinase 2 (Homo sapiens, UniProt Q5S007); assay type: functional;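 also: value from a broad kinome-wide panel profiling study in which LRRK2 was one of the kinases tested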
[9] = target: Insulin-like growth factor 1 receptor (Homo sapiens, UniProt P08069); experiment: Navigating the Kinome. Panel member name: IGF1R; assay type: functional
[10] = target: Hepatocyte growth factor receptor (Homo sapiens, UniProt P08581); assay type: functional;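 also: kinase panel profiling across the kinome, with MET as the panel member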
Focal adhesion kinase 1 = Focal adhesion kinase 1 (Homo sapiens, UniProt Q05397); assay type: functional;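 also: measured as one member of a kinome panel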
[11] = target: Homeodomain-interacting protein kinase 2 (Homo sapiens, UniProt Q9H2X6); assay type: functional;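 also: measured within a kinome-wide kinase profiling panel, HIPK2 being one panel member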
[12] = target: Glycogen synthase kinase-3 beta (Homo sapiens, UniProt P49841); assay type: functional;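 also: value comes from a broad kinome profiling panel, with GSK3B as the panel member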
[13] = target: Serine/threonine-protein kinase pim-1 (Homo sapiens, UniProt P11309); assay type: functional
[14] = target: Mitogen-activated protein kinase kinase kinase kinase 4 (Homo sapiens, UniProt O95819); assay type: functional
[15] = target: Dual specificity protein kinase CLK4 (Homo sapiens, UniProt Q9HAZ1); assay type: functional
[16] = target: Cell division cycle 7-related protein kinase (Homo sapiens, UniProt O00311); assay type: functional;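 also: value obtained from a kinome-wide kinase panel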
[17] = target: Cyclin-dependent kinase 2 (Homo sapiens, UniProt P24941); assay type: functional;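 also: CDK2 measured as one member of a broad kinome profiling panel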
[18] = target: Interleukin-1 receptor-associated kinase 4 (Homo sapiens, UniProt Q9NWZ3); assay type: functional
[19] = target: cAMP-dependent protein kinase catalytic subunit alpha (Homo sapiens, UniProt P17612); assay type: functional
Caspase-3 = target: T1, Caspase-3 (Homo sapiens, UniProt P42574); experiment: SAR Analysis of small molecule inhibitors of Sentrin-specific proteases (SENPs) using a Caspase-3 Selectivity assay. [Related pubchem assays (depositor defined):AID2540, AID2599, AID434973, AID489001]; assay type: functional
T1 sequence (P42574 whole entry): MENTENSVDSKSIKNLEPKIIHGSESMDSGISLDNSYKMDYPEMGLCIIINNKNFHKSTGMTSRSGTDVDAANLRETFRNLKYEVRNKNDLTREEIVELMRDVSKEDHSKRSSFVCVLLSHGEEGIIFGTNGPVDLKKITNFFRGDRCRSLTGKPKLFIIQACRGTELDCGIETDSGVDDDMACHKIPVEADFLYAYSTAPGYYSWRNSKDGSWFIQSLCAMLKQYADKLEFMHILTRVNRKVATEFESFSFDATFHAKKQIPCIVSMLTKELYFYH

[20] = target: T2, Sentrin-specific protease 8 (Homo sapiens, UniProt Q96LD8); experiment: SENP8 protease inhibitors, SAR follow-up, biochemical, luminescence (AID 504501); assay type: functional
T2 sequence (Q96LD8 whole entry): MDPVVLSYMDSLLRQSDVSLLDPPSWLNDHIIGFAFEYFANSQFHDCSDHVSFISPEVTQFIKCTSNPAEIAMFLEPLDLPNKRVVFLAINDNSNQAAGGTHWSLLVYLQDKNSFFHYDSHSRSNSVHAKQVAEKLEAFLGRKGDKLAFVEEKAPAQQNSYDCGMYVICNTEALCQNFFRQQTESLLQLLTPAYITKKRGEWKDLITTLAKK

[21] = target: T3, Sentrin-specific protease 7 (Homo sapiens, UniProt Q9BQF6); experiment: SENP7 protease inhibitors, SAR follow-up, biochemical, luminescence (AID 504497); assay type: functional
T3 sequence (Q9BQF6 whole entry): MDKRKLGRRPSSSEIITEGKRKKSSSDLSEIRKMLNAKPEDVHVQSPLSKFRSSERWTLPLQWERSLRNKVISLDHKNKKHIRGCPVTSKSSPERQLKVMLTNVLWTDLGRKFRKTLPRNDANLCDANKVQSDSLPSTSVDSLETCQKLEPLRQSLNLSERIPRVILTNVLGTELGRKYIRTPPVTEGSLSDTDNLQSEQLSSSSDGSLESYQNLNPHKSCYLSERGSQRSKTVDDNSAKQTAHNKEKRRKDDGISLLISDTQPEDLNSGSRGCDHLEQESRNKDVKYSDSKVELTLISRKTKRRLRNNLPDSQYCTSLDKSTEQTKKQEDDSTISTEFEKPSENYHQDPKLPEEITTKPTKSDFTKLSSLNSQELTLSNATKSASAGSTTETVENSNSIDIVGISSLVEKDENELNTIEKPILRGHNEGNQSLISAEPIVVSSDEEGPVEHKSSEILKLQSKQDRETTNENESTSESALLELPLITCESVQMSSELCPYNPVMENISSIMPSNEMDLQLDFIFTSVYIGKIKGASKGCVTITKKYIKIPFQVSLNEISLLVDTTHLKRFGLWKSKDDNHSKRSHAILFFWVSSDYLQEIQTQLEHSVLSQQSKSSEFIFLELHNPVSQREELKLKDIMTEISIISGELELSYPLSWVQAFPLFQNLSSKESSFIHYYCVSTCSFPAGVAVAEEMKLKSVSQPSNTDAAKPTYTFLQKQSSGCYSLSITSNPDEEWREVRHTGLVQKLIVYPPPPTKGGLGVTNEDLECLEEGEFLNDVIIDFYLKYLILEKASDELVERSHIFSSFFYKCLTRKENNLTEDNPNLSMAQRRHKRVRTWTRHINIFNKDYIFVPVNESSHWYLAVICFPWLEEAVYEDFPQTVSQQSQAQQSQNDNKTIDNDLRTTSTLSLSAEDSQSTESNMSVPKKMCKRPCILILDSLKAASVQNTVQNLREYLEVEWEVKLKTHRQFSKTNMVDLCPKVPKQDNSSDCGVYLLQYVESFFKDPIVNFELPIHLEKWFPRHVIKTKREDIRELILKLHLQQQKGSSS

[22] = target: T4, Sentrin-specific protease 6 (Homo sapiens, UniProt Q9GZR1); experiment: SAR Analysis of small molecule inhibitors of Sentrin-specific protease 6 (SENP6) using a Luminescent assay. [Related pubchem assays (depositor defined):AID2582, AID2599]; assay type: functional
T4 sequence (Q9GZR1 whole entry): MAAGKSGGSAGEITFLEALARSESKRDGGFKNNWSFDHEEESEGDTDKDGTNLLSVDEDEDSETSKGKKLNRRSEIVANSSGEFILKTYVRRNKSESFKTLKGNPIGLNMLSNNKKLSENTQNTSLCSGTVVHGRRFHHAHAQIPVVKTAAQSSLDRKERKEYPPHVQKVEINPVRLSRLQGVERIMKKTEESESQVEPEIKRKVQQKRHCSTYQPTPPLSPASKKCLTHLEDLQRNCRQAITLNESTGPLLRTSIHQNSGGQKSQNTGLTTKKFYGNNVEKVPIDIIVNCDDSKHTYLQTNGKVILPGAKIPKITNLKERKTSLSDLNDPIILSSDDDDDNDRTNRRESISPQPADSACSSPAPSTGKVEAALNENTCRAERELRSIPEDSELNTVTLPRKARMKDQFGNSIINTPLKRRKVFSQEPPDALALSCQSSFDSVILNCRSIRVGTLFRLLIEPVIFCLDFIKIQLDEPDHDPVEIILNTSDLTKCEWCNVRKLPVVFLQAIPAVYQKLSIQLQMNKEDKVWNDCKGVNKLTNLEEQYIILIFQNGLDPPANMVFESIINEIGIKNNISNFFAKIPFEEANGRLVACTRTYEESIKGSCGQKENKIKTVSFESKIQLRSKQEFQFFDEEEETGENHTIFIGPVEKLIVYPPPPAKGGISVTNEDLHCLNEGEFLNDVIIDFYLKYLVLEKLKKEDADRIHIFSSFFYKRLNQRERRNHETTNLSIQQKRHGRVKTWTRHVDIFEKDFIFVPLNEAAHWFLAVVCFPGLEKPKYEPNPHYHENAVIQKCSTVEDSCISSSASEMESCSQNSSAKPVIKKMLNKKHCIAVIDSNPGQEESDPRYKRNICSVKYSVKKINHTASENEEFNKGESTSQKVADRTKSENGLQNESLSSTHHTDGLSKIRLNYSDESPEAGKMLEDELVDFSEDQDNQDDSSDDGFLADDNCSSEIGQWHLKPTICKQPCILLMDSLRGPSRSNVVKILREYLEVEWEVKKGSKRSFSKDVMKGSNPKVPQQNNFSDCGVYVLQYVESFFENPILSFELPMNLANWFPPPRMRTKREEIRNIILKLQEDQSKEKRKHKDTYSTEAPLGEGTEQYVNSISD

[23] = target: T5, Melanin-concentrating hormone receptor 1 (Homo sapiens, UniProt Q99705); experiment: Late-stage fluorescence-based counterscreen for antagonists of the G-protein coupled receptor 7 (GPR7): cell-based dose response assay to identify antagonists of the melanin-concentrating hormone receptor 1 (MCHR1) Set 5.; assay type: functional
[24] = target: T6, Neuropeptides B/W receptor type 1 (Homo sapiens, UniProt P48145); experiment: GPR7 antagonist potency, late-stage follow-up, cell-based, fluorescence, dose response, set 5 (AID 588566); assay type: functional
[25] = HIV-1 Env-mediated cell fusion inhibitors, dose response, CCR5-tropic Env (AID 2279); assay type: functional
[26] = Vero cell cytotoxicity, cytotoxicity control for M. tuberculosis inhibitor project, purified and synthesized samples, set 3 (AID 504684); assay type: functional
[27] = A Cell Based Secondary Assay to Explore Cytotoxicity in HepG2 Cells of Compounds that Modulate Mycobacterium tuberculosis in Media Containing Glycerol versus Media without Glycerol (2).; assay type: functional
[28] = A Cell Based Secondary Assay to Explore Cytotoxicity in THP-1 Cells of Compounds that Modulate Mycobacterium tuberculosis in Media Containing Glycerol versus Media without Glycerol (2).; assay type: functional
[29] = microbe, parasite or virus in culture; assay type: functional; details: Mycobacterium tuberculosis
[30] = target: Protein kinase C delta type (Homo sapiens, UniProt Q05655); assay type: functional
Misshapen-like kinase 1 = Misshapen-like kinase 1 (Homo sapiens, UniProt Q8N4C8); assay type: functional;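 also: kinome panel screen with MINK as the panel member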
[31] = target: Benomyl/methotrexate resistance protein (Candida albicans, UniProt P28873); experiment: CaMdr1 efflux pump inhibitor potency, dose response, singleplex, Cherry Pick2 set (AID 623992); assay type: functional; details: read-out: EC50_MICROM
[32] = target: T6, Neuropeptides B/W receptor type 1; experiment: GPR7 antagonist potency, late-stage follow-up, cell-based, fluorescence, dose response, set 6 (AID 588583); assay type: functional
[33] = target: T5, Melanin-concentrating hormone receptor 1; experiment: Late-stage fluorescence-based counterscreen for antagonists of the G-protein coupled receptor 7 (GPR7): cell-based dose response assay to identify antagonists of the melanin-concentrating hormone receptor 1 (MCHR1) Set 6.; assay type: functional

Sequence of Mitogen-activated protein kinase kinase kinase kinase 4 (O95819 whole entry): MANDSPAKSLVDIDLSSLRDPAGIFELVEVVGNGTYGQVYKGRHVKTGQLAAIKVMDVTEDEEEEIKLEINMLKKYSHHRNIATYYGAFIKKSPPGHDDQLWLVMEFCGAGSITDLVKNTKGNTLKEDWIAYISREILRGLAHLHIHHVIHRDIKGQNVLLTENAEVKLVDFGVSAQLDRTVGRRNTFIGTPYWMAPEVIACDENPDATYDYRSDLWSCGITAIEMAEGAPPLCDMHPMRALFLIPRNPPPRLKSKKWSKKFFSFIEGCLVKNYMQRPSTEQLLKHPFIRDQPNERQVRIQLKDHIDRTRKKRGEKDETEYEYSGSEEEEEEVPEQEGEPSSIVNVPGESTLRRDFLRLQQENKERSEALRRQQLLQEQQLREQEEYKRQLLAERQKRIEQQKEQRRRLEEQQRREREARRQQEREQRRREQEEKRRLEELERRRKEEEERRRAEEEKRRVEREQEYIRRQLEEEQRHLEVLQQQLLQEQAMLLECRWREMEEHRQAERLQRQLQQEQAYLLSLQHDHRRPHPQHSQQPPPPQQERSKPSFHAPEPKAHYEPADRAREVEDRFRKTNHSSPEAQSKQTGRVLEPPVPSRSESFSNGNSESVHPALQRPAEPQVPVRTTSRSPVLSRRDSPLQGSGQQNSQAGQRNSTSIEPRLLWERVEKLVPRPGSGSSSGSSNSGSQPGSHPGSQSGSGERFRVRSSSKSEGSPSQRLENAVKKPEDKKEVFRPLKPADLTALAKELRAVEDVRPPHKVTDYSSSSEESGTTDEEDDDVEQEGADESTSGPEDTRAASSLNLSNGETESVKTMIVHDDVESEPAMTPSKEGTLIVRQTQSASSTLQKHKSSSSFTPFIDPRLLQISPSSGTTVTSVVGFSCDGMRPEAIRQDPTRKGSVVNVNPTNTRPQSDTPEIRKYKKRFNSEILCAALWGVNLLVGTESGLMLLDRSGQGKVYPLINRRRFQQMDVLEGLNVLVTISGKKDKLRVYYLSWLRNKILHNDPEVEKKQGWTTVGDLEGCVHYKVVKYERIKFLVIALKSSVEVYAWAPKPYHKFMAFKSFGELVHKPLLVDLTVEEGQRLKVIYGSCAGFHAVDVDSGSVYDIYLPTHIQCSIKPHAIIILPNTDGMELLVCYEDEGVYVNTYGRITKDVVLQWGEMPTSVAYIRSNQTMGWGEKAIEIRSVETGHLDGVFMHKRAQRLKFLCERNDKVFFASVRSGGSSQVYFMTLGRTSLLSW
T5 sequence (Q99705 whole entry): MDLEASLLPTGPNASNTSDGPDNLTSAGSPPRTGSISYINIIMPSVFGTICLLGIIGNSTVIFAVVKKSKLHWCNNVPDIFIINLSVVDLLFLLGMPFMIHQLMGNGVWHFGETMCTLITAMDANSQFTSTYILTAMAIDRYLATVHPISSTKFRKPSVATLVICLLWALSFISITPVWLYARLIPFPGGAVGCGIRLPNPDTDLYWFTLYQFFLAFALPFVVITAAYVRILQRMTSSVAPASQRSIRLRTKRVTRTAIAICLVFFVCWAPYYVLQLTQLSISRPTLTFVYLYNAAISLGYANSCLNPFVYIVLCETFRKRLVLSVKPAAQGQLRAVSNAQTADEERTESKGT
T6 sequence (P48145 whole entry, the tested form may be a part): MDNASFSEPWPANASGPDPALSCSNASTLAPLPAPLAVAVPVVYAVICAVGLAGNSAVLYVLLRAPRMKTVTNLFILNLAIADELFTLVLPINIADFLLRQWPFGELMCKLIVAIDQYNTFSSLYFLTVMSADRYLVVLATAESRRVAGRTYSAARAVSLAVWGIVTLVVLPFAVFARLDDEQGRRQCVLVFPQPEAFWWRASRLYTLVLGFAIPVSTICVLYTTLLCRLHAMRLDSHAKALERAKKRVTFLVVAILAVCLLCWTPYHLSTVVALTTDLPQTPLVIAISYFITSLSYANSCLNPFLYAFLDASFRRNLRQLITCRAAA
Sequence of Focal adhesion kinase 1 (Q05397 whole entry): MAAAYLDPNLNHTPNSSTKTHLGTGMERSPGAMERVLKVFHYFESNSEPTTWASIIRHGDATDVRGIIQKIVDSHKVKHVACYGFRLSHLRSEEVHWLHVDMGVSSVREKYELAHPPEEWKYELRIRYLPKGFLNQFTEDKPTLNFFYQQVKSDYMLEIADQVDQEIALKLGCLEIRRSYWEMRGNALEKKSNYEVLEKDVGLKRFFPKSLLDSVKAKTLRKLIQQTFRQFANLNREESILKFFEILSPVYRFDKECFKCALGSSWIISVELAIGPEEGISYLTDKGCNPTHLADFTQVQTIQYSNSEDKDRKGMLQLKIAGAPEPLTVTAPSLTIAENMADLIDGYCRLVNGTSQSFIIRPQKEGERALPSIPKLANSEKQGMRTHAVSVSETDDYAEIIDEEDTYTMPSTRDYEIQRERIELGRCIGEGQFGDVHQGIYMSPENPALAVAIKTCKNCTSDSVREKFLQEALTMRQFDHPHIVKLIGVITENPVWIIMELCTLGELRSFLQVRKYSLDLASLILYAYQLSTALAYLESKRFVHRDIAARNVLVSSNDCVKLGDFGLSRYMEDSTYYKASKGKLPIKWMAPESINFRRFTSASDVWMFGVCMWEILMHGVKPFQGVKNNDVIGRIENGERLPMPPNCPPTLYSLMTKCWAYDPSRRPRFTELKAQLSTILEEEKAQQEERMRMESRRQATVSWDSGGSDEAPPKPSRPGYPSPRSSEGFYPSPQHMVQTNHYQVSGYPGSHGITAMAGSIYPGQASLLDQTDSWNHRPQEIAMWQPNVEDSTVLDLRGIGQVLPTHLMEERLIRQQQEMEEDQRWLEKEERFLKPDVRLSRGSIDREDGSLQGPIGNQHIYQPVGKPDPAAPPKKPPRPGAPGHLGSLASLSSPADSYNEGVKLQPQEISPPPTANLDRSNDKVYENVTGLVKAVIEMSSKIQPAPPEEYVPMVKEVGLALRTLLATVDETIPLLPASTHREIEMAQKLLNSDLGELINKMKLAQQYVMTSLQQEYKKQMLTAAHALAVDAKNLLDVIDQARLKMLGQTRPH
Sequence of Benomyl/methotrexate resistance protein (P28873 whole entry): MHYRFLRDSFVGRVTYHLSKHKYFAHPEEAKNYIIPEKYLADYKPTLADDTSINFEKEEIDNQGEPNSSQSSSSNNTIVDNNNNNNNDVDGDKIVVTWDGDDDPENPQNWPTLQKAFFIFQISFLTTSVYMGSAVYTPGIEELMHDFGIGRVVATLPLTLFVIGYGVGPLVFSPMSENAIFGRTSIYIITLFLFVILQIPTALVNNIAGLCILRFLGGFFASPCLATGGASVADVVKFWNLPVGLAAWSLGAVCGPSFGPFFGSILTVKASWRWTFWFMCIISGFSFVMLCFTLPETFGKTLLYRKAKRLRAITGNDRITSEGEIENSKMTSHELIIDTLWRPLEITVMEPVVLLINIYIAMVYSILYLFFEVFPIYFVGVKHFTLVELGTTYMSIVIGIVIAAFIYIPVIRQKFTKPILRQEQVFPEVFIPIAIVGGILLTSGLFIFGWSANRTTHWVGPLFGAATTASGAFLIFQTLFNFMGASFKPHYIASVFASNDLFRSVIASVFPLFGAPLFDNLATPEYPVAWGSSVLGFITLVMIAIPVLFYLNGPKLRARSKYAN
Sequence of Homeodomain-interacting protein kinase 2 (Q9H2X6 whole entry): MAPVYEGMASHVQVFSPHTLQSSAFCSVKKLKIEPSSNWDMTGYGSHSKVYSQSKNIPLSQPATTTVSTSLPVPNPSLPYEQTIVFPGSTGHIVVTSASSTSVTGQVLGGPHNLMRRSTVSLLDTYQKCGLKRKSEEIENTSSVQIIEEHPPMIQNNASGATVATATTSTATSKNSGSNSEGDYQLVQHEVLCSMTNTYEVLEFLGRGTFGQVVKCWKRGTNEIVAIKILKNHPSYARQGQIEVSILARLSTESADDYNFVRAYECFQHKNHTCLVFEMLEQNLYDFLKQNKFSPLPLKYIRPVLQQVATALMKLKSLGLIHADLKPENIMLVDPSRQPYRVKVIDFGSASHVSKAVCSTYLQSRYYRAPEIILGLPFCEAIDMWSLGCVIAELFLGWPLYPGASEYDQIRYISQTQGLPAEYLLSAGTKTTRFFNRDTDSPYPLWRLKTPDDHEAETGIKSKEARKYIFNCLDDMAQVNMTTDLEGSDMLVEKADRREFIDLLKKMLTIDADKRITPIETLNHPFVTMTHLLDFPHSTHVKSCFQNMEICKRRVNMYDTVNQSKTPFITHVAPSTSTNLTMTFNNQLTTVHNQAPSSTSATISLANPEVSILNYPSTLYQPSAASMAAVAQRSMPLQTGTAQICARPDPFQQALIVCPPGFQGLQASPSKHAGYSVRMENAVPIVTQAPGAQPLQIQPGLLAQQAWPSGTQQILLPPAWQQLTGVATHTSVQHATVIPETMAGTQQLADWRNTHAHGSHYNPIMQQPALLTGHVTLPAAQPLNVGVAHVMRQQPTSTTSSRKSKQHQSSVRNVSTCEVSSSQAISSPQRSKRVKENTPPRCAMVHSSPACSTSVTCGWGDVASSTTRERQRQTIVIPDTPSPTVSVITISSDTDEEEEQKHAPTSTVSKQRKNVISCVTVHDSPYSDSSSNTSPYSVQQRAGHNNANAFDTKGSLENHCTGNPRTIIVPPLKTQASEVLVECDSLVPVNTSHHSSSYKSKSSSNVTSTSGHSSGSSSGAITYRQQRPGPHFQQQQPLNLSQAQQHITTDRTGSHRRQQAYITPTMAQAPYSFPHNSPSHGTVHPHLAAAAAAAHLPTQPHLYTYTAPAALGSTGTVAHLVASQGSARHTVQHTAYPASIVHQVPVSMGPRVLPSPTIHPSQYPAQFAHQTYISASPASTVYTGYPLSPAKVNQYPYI
Sequence of Serine/threonine-protein kinase pim-1 (P11309 whole entry): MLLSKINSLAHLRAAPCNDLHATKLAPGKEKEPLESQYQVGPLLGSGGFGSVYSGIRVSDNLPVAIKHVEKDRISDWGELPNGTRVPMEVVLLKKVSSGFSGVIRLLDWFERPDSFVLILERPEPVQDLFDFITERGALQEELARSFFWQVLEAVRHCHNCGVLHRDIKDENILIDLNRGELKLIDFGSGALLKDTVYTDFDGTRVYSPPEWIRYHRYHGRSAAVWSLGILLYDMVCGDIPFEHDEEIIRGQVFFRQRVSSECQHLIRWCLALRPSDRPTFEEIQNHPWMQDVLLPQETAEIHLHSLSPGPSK

O=C1NC[C@H](c2ccccc2)OC(=O)[C@@H](Cc2ccc(F)cc2)C/C=C\C[C@H]1CC(=O)N(CCO)Cc1ccccc1
IC50 (Melanocortin receptor 4): > 64.6 µM (inactive)
IC50 [1]: > 64.6 µM (inactive)
IC50 [2]: 30.3 µM (inactive)

Cc1ccc(NC(=O)CCSc2nnc3scc(-c4ccccc4)n23)cc1
IC50 [3]: > 99 µM (inactive)
IC50 [4]: > 99 µM (inactive)

c1ccc(CNc2nc(Nc3cc(C4CC4)[nH]n3)c3sccc3n2)cc1
Ki [5]: 0.01 µM (active)
Ki [6]: 0.00316 µM (active)
Ki [7]: 0.0126 µM (active)
Ki [8]: 0.01 µM (active)
Ki [9]: 0.0794 µM (active)
Ki [10]: 0.794 µM (active)
Ki (Focal adhesion kinase 1): 0.00501 µM (active)

O=c1cc(-c2ccc(F)cc2)[nH]c2c(-c3ccc(F)cc3)cnn12
Ki [11]: 0.2 µM (active)
Ki [12]: 0.501 µM (active)
Ki [13]: 0.0501 µM (active)
Ki [14]: > 10 µM (inactive)
Ki [15]: 0.158 µM (active)
Ki [16]: 0.0501 µM (active)
Ki [17]: > 7.94 µM (inactive)
Ki [18]: > 10 µM (inactive)
Ki [19]: > 7.94 µM (inactive)

Clc1ccc(N/N=C/c2c[nH]c3ccccc23)cc1
IC50 (Caspase-3): > 99 µM (inactive)
IC50 [20]: > 99 µM (inactive)
IC50 [21]: 57 µM (active)
IC50 [22]: > 99 µM (inactive)

COc1c(F)cc(Oc2c(Cl)cnn(Cc3cccc4ccccc34)c2=O)cc1F
IC50 [23]: 7.43 µM (active)
IC50 [24]: 2.2 µM (active)

CC(C)NC(=O)c1sc(=S)n2c1[nH]c(=O)c1ccc(C(=O)NCCc3ccc(Cl)cc3)cc12
IC50 [25]: 41.5 µM (active)
CC50 [26]: > 100 µM (active)
CC50 [27]: > 50 µM (active)
CC50 [28]: > 100 µM (active)
CC50 [29]: > 40 µM (active)

CC(C)Oc1ccc(-c2noc(-c3ccc(OCC(O)CO)cc3)n2)cc1Cl (stereo not drawn)
Ki [30]: 7.94 µM (active)
Ki [14]: 2 µM (active)
Ki (Misshapen-like kinase 1): 6.31 µM (active)

O=C(c1ccc2c(c1)OCO2)N1CCC2(CC1)Oc1ccc(F)cc1C(=O)C21CC(c2ccccc2)=NO1 (stereo not drawn)
EC50 [31]: 9.25 µM (active)

N#CC(c1c(F)cccc1F)c1c(Cl)cnn(Cc2cccc3ccccc23)c1=O (stereo not drawn)
IC50 [32]: 1.61 µM (active)
IC50 [33]: 1.61 µM (active)
